Here are results for 1 molecule from patent US20220184008A1, “MODULATORS OF INTRACELLULAR CHLORIDE CONCENTRATION” (FONDAZIONE ISTITUTO ITALIANO DI TECNOLOGIA, priority 2019, published 2022).

Experiment [1] has as its system Ts65Dn mice. In words: Cognitive impairment tests in Ts65Dn mice (object location, object recognition, T-maze, fear conditioning). It counts as in vivo. Particulars: i.p. 0.2 mg/kg, one week; four cognitive tests. From the text:
FIG. 4: In vivo assessment of the efficacy of the selected NKCC1 inhibitor in Ts65Dn mice. (a) Quantification of the discrimination index in mice treated with vehicle (WT, n=14, Ts65Dn, n=10;) or 3.17 (WT, n=14, Ts65Dn, n=11;) ***P<0.001; two-way ANOVA Tukey's post hoc test. (b) Quantification of the discrimination index in mice treated with vehicle (WT, n=14, Ts65Dn, n=10;) or 3.17 (WT, n=14, Ts65Dn, n=11) *P<0.05, **P<0.01 two-way ANOVA Tukey's post hoc test. (c) Quantification of the correct choices in mice treated with vehicle (WT, n=14, Ts65Dn, n=10;) or 3.17 (WT, n=14, Ts65Dn, n=11;) ***P<0.001; two-way ANOVA Tukey's post hoc test. (d) Quantification of the freezing response in mice treated with vehicle (WT, n=14, Ts65Dn, n=10;) or 3.17 (WT, n=14, Ts65Dn, n=11;) *P<0.05, **P<0.01 two-way ANOVA Tukey's post hoc test.
The efficacy of compound 3.17 in rescuing cognitive impairment in four different cognitive tests in Ts65Dn mice (FIG. 4) has been evaluated. Adult Ts65Dn mice and their WT littermates were treated (2 months old) for one week with 3.17 (i.p. 0.2 mg/kg) or its vehicle. For the following three weeks, the animals were tested in four different tasks assessing memory and cognition: a) novel object location task (Deidda, G. et al. Reversing excitatory GABAAR signaling restores synaptic plasticity and memory in a mouse model of Down syndrome. […]

The test system of experiment [2] is valproic acid (VPA)-induced mouse model of autism. Description: VPA-induced mouse model of autism (three-chamber, male-female interaction, marble burying, grooming). It counts as in vivo. Conditions: VPA mice, 0.2 mg/kg i.p. seven days. The source says:
Right panel, quantification of the social novelty index in mice treated with vehicle (WT, n=15, VPA, n=10) or 3.17 (WT, n=9, VPA, n=12); two-way ANOVA, Tukey's post hoc test, *P<0.05, **P<0.01. (b) Quantification of the interaction time in mice treated with vehicle (WT, n=15, VPA, n=10) or 3.17 (WT, n=10, VPA, n=11); two-way ANOVA, Tukey's post hoc test, **P<0.01. (c) Quantification of the number of marbles buried by mice treated with vehicle (WT, n=17, VPA, n=17) or 3.17 (WT, n=13, VPA, n=13); two-way ANOVA, Tukey's post hoc test, *P<0.05, **P<0.01. (d) Quantification of grooming time for mice treated with vehicle (WT, n=20, VPA, n=17) or 3.17 (WT, n=13, VPA, n=13); two-way ANOVA on Ranks, Tukey's post hoc test, *P<0.05, **P<0.01.
In vivo assessment of the efficacy of the selected NKCC1 inhibitor in the valproic acid (VPA)-induced mouse model of autism, to assess its ability to rescue altered social interaction. The VPA model was obtained by treating pregnant C57bl/6j dams at 12.5 days of pregnancy with 600 mg/kg (i.p.) of VPA dissolved in PBS. […] As control, the offspring of C57bl/6j dams treated at 12.5 with PBS was used. To assess the efficacy of the compound to restore social deficits, juvenile male offspring of both the VPA- and PBS-treated dams were treated (i.p injection) with 0.2 mg/kg of compound 3.17 dissolved in PBS or 2% DMSO dissolved in PBS as control for seven days. Then, mice were tested for their social ability and for repetitive behaviors in different tests. The social ability was tested in the three-chamber test (Silverman et al., 2010). In the three-chamber test, mice are singularly placed in a three-chamber box with openings between the chambers. After ten minutes of free exploration, a never-before-met intruder is placed under one pencil cup in one chamber and an empty pencil cup was placed in the other chamber. […] The social novelty index is measured as follows: [(time spent with the new intruder−time spent with the old intruder)/(time spent with the new intruder+time spent with the old intruder) %].
The sociability during male-female interaction was then assessed (Drapeau et al., 2018). In this test the tested mouse, after 5 minutes of habituation, is evaluated for its approach to a female intruder mouse that is placed for 5 minutes in the same cage. The time spent interacting is calculated as a measure of male-female social interaction. […] Finally, repetitive behaviors were evaluated in two different tests. […] The repetitive behavior is evaluated as the number of marbles buried in the litter. […] During the test, the mouse is placed in a cylindrical support and after 10 minutes of habituation, the repetitive grooming activity is measured during 5 minutes.

With `CN(C)S(=O)(=O)c1cc(C(=O)O)ccc1NCCCCCCCC(F)(F)F` [Compound 3.17, 3-(dimethylsulfamoyl)-4-(8,8,8-trifluorooctylamino) benzoic acid], the “cognitive performance of Ts65Dn mice” value in experiment [1] is “ameliorated”. In experiment [2], the male-female interaction result is “completely restored” and the “repetitive behaviors (marbles buried, grooming time)” value is “completely restored”. For the same molecule, in experiment [2] (three-chamber test), the sociability index entry is “completely restored” and the social novelty index entry is reported as “completely restored”.
